Values belong to the compound of their own block, whether it stands above or below them.
Experiments:
Coxsackievirus B2 = assay: Antiviral activity against Human Coxsackievirus B2 infected in African green monkey Vero cells assessed as reduction in virus-induced cytopathic effect incubated for 48 hrs by microscopic analysis; assay type: functional, organism-based; conditions: Enterovirus B
Coxsackievirus B3 = assay: Antiviral activity against Coxsackievirus B3 infected in African green monkey Vero cells assessed as reduction in virus-induced cytopathic effect incubated for 48 hrs by microscopic analysis; assay type: functional, organism-based; conditions: Enterovirus B
Coxsackievirus B4 = assay: Antiviral activity against Coxsackievirus B4 infected in African green monkey Vero cells assessed as reduction in virus-induced cytopathic effect incubated for 48 hrs by microscopic analysis; assay type: functional, organism-based; conditions: Enterovirus B
Coxsackievirus B5 = assay: Antiviral activity against Coxsackievirus B5 infected in African green monkey Vero cells assessed as reduction in virus-induced cytopathic effect incubated for 48 hrs by microscopic analysis; assay type: functional, organism-based; conditions: Enterovirus B
Coxsackievirus B6 = assay: Antiviral activity against Human Coxsackievirus B6 infected in African green monkey Vero cells assessed as reduction in virus-induced cytopathic effect incubated for 48 hrs by microscopic analysis; assay type: functional, organism-based; conditions: Enterovirus B
RAW264.7 [1] = assay: Antiinflammatory activity in LPS-induced mouse RAW264.7 cells assessed as reduction in COX-2 level at 25 uM pretreated for 1 hr followed by LPS stimulation and measured after 49 hrs by ELISA relative to control; assay type: functional; parameters: scale not given: the % may be the effect or the level left; conditions: time 50 hrs
RAW264.7 [2] = assay: Antiinflammatory activity in LPS-induced mouse RAW264.7 cells assessed as reduction in […] level at 25 uM pretreated for 1 hr followed by LPS stimulation and measured after 49 hrs by ELISA relative to control; assay type: functional; parameters: scale not given: the % may be the effect or the level left; conditions: time 50 hrs
[3] = Induction of glucose-stimulated insulin secretion in rat INS1 cells assessed as increase in insulin secretion at 25 uM pretreated for 48 hrs followed by glucose stimulation and measured after 1 hr by ELISA; assay type: functional
[4] = Acute toxicity in ip dosed NIH mouse expressing aP2-SREBP-1c assessed as lethal dose measured for 14 days by modified karber's method; assay type: organism-based; conditions: in vivo, time 14 day
[5] = Cytotoxicity against mouse 3T3-L1 assessed as reduction in cell viability measured after 48 hrs by CCK-8 assay; assay type: toxicity, cell-based; conditions: 3T3-L1 cells
HL-60 [6] = assay: Antiproliferative activity against human HL-60 cells incubated for 48 hrs by MTT assay; assay type: functional, cell-based; conditions: HL-60, 48 h
HL-60 [7] = assay: Potency index, ratio of berberine IC50 to test compound IC50 for antiproliferative activity against human HL-60 cells incubated for 48 hrs by MTT assay; assay type: functional

IC50 (Coxsackievirus B2): 3.08 µM | IC50 (Coxsackievirus B3): 3.08 µM | IC50 (Coxsackievirus B4): 3.08 µM | IC50 (Coxsackievirus B5): 3.08 µM | IC50 (Coxsackievirus B6): 3.08 µM
Compound: COc1cc2c(cc1OCCOCCN)CC[n+]1cc3c(OC)c(OC)ccc3cc1-2

Compound: COc1ccc2cc3[n+](cc2c1OCc1nc(C)nc(N(C)C)n1)CCc1cc2c(cc1-3)OCO2.[Cl-]
Activity (RAW264.7 [1]): 25.42% | Activity (RAW264.7 [2]): 36.41% | Activity [3]: 143%

Compound: C=CCc1ccc(O)c(-c2cc(CC=C)ccc2OCCOc2c(OC)ccc3cc4[n+](cc23)CCc2cc3c(cc2-4)OCO3)c1.[Cl-]
LD50 at 336 h [4]: 279 mg/kg | IC50 at 48 h [5]: 11.5 µM

IC50 (HL-60 [6]): 0.7 µM
Compound: COc1ccc2cc3[n+](cc2c1OCCCBr)CCc1cc2c(cc1-3)OCO2.[Cl-]
Ratio IC50 (HL-60 [7]): 30

Source: ChEMBL document CHEMBL5096175, “An insight into the medicinal attributes of berberine derivatives: A review” (Bioorg Med Chem, 2021)
